Measured values: patent US12527789B2, “Inhibition of a tripartite VOR protein complex in multicellular organisms” (TECHNISCHE UNIVERSITÄT DRESDEN, priority 2018, dated 2026)

Tested on: nuclear pores and importin β1
Assay: NEI-associated late endosomes and transfer of EV-derived components into the nucleoplasm after importazole treatment
Assay type: cell-based
From the text: Referring to FIGS. 1A, 1B and 1C, illustrated are schematic illustrations of data showing the localization and the tripartite structure of a VOR complex. […] Typically, EVs are transported to late endosomes after their endocytosis, wherein the EVs facilitate intercellular communication in diverse cellular processes.

CC(Nc1nc(N2CCCC2)nc2ccccc12)c1ccccc1 (centres unmarked) [importazole]
transfer of EV-derived components into the nucleoplasm of host cells: inhibition of transfer of EV-derived components into the nucleoplasm of host cells | presence of nuclear envelope invagination (NEI)-associated late endosomes (host cells after importazole treatment): lack of the nuclear envelope invagination (NEI)-associated late endosomes
